Test [1] has as its system Jurkat (clone E6-1) cells with NFAT luciferase reporter. The test is described as follows: Jurkat reporter assay (NFAT Luciferase). Format: cell-based. Particulars: Homo sapiens; Jurkat NFAT luciferase reporter cells, anti-CD3 stimulation, 6 hr; read-out: Jurkat NFAT EC50. On the technique in general: In a reporter assay the amount or activity of a reporter protein is the signal.

In test [2] the target is T1, Recombinant human c-Cbl (aa 47-435) (Homo sapiens, UniProt P22681).
T1 sequence (P22681 47-435): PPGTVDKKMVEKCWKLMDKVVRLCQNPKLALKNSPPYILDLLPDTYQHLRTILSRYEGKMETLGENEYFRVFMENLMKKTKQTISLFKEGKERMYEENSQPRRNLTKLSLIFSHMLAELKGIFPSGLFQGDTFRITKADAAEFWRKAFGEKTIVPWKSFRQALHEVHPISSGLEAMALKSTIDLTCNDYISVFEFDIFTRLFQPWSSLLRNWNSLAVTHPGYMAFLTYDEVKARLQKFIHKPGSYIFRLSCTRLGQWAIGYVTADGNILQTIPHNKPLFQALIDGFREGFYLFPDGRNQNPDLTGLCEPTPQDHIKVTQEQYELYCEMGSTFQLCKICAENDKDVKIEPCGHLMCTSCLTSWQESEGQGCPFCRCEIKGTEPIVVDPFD
Description: c-Cbl Biochemical Assay (TR-FRET). Particulars: hc-Cbl Biochemical Assay (TR-FRET); read-out: TR-FRET hcCbl IC50. In general terms: In TR-FRET formats the signal depends on donor and acceptor labels being close together.

For test [3], the target named is Recombinant human Cbl-b (aa 36-427) (Homo sapiens, UniProt Q13191). Description: Cbl-b Biochemical Assay (TR-FRET). Particulars: read-out: TR-FRET hCbl-b IC50.
Recombinant human Cbl-b (aa 36-427), sequence (Q13191 36-427): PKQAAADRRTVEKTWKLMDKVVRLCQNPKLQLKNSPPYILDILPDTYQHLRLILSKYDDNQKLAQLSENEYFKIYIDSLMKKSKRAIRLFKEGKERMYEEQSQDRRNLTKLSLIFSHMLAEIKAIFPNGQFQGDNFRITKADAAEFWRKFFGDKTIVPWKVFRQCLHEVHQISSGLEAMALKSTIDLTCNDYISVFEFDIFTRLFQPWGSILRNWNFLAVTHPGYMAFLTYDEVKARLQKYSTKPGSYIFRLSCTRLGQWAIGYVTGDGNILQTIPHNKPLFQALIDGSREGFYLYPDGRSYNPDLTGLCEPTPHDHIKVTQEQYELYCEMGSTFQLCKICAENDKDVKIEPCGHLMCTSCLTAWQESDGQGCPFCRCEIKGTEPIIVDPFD

As usually defined, the EC50 is the concentration needed to bring the measured effect to its halfway point. The IC50 is the midpoint of a concentration-inhibition curve. `Cc1cc(CN[C@@H]2CCC[C@@H]2O)cc2nc(-c3cccc(-c4ccc(F)cc4-c4nncn4C)c3)oc12` [FG-2, (1S,2R)-2-(((2-(4′-Fluoro-2′-(4-methyl-4H-1,2,4-triazol-3-yl)-[1,1′-biphenyl]-3-yl)-7-methylbenzo[d]oxazol-5-yl)methyl)amino)cyclopentan-1-ol]: the EC50 in test [1] is less than 200 nM. Besides, the half-maximal inhibitory concentration (IC50) in test [2] and in test [3] was less than 200 nM in each case.
As for `COc1cccc2oc(-c3cccc(-c4ccc(F)cc4-c4nncn4C)c3)nc12` [FH-2, 2-(4′-Fluoro-2′-(4-methyl-4H-1,2,4-triazol-3-yl)-[1,1′-biphenyl]-3-yl)-4-methoxybenzo[d]oxazole], the half-maximal effective concentration (EC50) in test [1] lay in the range of 10000 to 50000 nM. Moreover, the IC50 in test [2] and in test [3] was 1000 to 10000 nM each time.
On to `CCOCCNCc1cc(C(F)(F)F)c2oc(-c3cccc(-c4ccc(F)cc4-c4nncn4C)c3)nc2c1` [FI-2, 2-Ethoxy-N-((2-(4′-fluoro-2′-(4-methyl-4H-1,2,4-triazol-3-yl)-[1,1′-biphenyl]-3-yl)-7-(trifluoromethyl)benzo[d]oxazol-5-yl)methyl)ethan-1-amine], for which the EC50 in test [1] was less than 200 nM. The IC50 in test [2] and in test [3] was less than 200 nM each time.
For `Cn1cnnc1-c1cc(F)ccc1-c1cccc(-c2nc3cc(CN[C@@H]4CCC[C@@H]4O)cc(C(C)(F)F)c3o2)c1` [FJ-2, (1S,2R)-2-(((7-(1,1-Difluoroethyl)-2-(4′-fluoro-2′-(4-methyl-4H-1,2,4-triazol-3-yl)-[1,1′-biphenyl]-3-yl)benzo[d]oxazol-5-yl)methyl)amino)cyclopentan-1-ol], the EC50 in test [1] is less than 200 nM. The IC50 in test [2] and in test [3] was less than 200 nM in each case.
`CCCNCc1cc(C(F)(F)F)c2oc(-c3cccc(-c4ccc(F)cc4-c4nncn4C)c3)nc2c1` [FL-2, N-((2-(4′-Fluoro-2′-(4-methyl-4H-1,2,4-triazol-3-yl)-[1,1′-biphenyl]-3-yl)-7-(trifluoromethyl)benzo[d]oxazol-5-yl)methyl)propan-1-amine]: the concentration giving a half-maximal response (EC50) in test [1] was less than 200 nM. Besides, the IC50 in test [2] and in test [3] was less than 200 nM each time.
As to `Cn1cnnc1-c1cc(F)ccc1-c1cccc(-c2nc3cc(CNC4CC5(CCC5)C4)cc(C(F)(F)F)c3o2)c1` [FM-2, N-((2-(4′-Fluoro-2′-(4-methyl-4H-1,2,4-triazol-3-yl)-[1,1′-biphenyl]-3-yl)-7-(trifluoromethyl)benzo[d]oxazol-5-yl)methyl)spiro[3.3]heptan-2-amine], the EC50 in test [1] was less than 200 nM. The half-inhibitory concentration (IC50) in test [2] and in test [3] was less than 200 nM in each case.
For the compound `COc1cc(CNCC2CCCC2)cc2nc(-c3cccc(-c4ccc(F)cc4-c4nncn4C)c3)oc12` [FN-1, 1-Cyclopentyl-N-((2-(4′-fluoro-2′-(4-methyl-4H-1,2,4-triazol-3-yl)-[1,1′-biphenyl]-3-yl)-7-methoxybenzo[d]oxazol-5-yl)methyl)methanamine], in test [1], the EC50 is less than 200 nM. Further, the IC50 in test [2] and in test [3] was less than 200 nM throughout.
For `CC(C)CCNCc1cc(C(F)(F)F)c2oc(-c3cccc(-c4ccc(F)cc4-c4nncn4C)c3)nc2c1` [FO-2, N-((2-(4′-Fluoro-2′-(4-methyl-4H-1,2,4-triazol-3-yl)-[1,1′-biphenyl]-3-yl)-7-(trifluoromethyl)benzo[d]oxazol-5-yl)methyl)-3-methylbutan-1-amine], the EC50 in test [1] was less than 200 nM. Further, the half-maximal inhibitory concentration (IC50) in test [2] and in test [3] was less than 200 nM in each case.
`COc1cc(CN[C@@H]2CCC[C@@H]2OC)cc2nc(-c3cccc(-c4ccc(F)cc4-c4nncn4C)c3)oc12` [FQ-1, (1R,2S)—N-((2-(4′-Fluoro-2′-(4-methyl-4H-1,2,4-triazol-3-yl)-[1,1′-biphenyl]-3-yl)-7-methoxybenzo[d]oxazol-5-yl)methyl)-2-methoxycyclopentan-1-amine]: the concentration for a half-maximal effect (EC50) in test [1] was 1000 to 10000 nM. Further, the IC50 in test [2] and in test [3] was 200 to 1000 nM throughout.
Consider `COc1cc(CNC[C@H]2CCCO2)cc2nc(-c3cccc(-c4ccc(F)cc4-c4nncn4C)c3)oc12` [FR-1, (R)-1-(2-(4′-Fluoro-2′-(4-methyl-4H-1,2,4-triazol-3-yl)-[1,1′-biphenyl]-3-yl)-7-methoxybenzo[d]oxazol-5-yl)-N-((tetrahydrofuran-2-yl)methyl)methanamine], for which the EC50 in test [1] is 200 to 1000 nM. Moreover, the figures for the IC50 in test [2] and in test [3] were 200 to 1000 nM and less than 200 nM, respectively.
Regarding `COc1cc(CNC[C@@H]2CCCO2)cc2nc(-c3cccc(-c4ccc(F)cc4-c4nncn4C)c3)oc12` [FS-2, (S)-1-(2-(4′-Fluoro-2′-(4-methyl-4H-1,2,4-triazol-3-yl)-[1,1′-biphenyl]-3-yl)-7-methoxybenzo[d]oxazol-5-yl)-N-((tetrahydrofuran-2-yl)methyl)methanamine], in test [1], the EC50 is less than 200 nM. Besides, the IC50 in test [2] and in test [3] was less than 200 nM each time.
`Cn1cnnc1-c1cc(F)ccc1-c1cccc(-c2nc3cc(CNCC4CCC4)cc(C4CC4)c3o2)c1` [FT-1, 1-Cyclobutyl-N-((7-cyclopropyl-2-(4′-fluoro-2′-(4-methyl-4H-1,2,4-triazol-3-yl)-[1,1′-biphenyl]-3-yl)benzo[d]oxazol-5-yl)methyl)methanamine]: the half-maximal effective concentration (EC50) in test [1] was less than 200 nM. The IC50 in test [2] and in test [3] was less than 200 nM throughout.
For the compound `COc1cc(CNCC2CC2)cc2nc(-c3cccc(-c4ccc(F)cc4-c4nncn4C)c3)oc12` [FU-1, 1-Cyclopropyl-N-((2-(4′-fluoro-2′-(4-methyl-4H-1,2,4-triazol-3-yl)-[1,1′-biphenyl]-3-yl)-7-methoxybenzo[d]oxazol-5-yl)methyl)methanamine], the EC50 in test [1] lay in the range of 200 to 1000 nM. Moreover, the IC50 in test [2] and in test [3] was less than 200 nM each time.
Consider `CN(Cc1cc(C(F)(F)F)c2oc(-c3cccc(-c4ccc(F)cc4-c4nncn4C)c3)nc2c1)[C@@H]1CCC[C@@H]1O` [FW-3, (1S,2R)-2-(((2-(4′-Fluoro-2′-(4-methyl-4H-1,2,4-triazol-3-yl)-[1,1′-biphenyl]-3-yl)-7-(trifluoromethyl)benzo[d]oxazol-5-yl)methyl)(methyl)amino)cyclopentan-1-ol], for which, in test [1], the half-maximal effective concentration (EC50) was less than 200 nM. Moreover, the 50% inhibitory concentration (IC50) in test [2] and in test [3] was less than 200 nM each time.
Take `CC(C)CNCc1cc(C(F)(F)F)c2oc(-c3cccc(-c4ccc(F)cc4-c4nncn4C)c3)nc2c1` [FX-2, N-((2-(4′-Fluoro-2′-(4-methyl-4H-1,2,4-triazol-3-yl)-[1,1′-biphenyl]-3-yl)-7-(trifluoromethyl)benzo[d]oxazol-5-yl)methyl)-2-methylpropan-1-amine]: the 50% effective concentration (EC50) in test [1] is less than 200 nM. Also, the IC50 in test [2] and in test [3] was less than 200 nM each time.
Consider `COCCCNCc1cc(OC)c2oc(-c3cccc(-c4ccc(F)cc4-c4nncn4C)c3)nc2c1` [FY-1, N-((2-(4′-Fluoro-2′-(4-methyl-4H-1,2,4-triazol-3-yl)-[1,1′-biphenyl]-3-yl)-7-methoxybenzo[d]oxazol-5-yl)methyl)-3-methoxypropan-1-amine], for which the EC50 in test [1] is 1000 to 10000 nM. For the same compound, the IC50 is 200 to 1000 nM in test [2] and less than 200 nM in test [3].
For the compound `Cn1cnnc1-c1cc(F)ccc1-c1cccc(-c2cn3cc(CO)ccc3n2)c1` [FZ-5, (2-(4′-Fluoro-2′-(4-methyl-4H-1,2,4-triazol-3-yl)-[1,1′-biphenyl]-3-yl)imidazo[1,2-a]pyridin-6-yl)methanol], the concentration giving a half-maximal response (EC50) in test [1] lay within 10000 to 50000 nM. Further, the IC50 was 10000 to 50000 nM in test [2] and 1000 to 10000 nM in test [3].
Consider `COc1cc(CNCC2(O)CCC2)cc2nc(-c3cccc(-c4ccc(F)cc4-c4nncn4C)c3)oc12` [GA-1, 1-((((2-(4′-Fluoro-2′-(4-methyl-4H-1,2,4-triazol-3-yl)-[1,1′-biphenyl]-3-yl)-7-methoxybenzo[d]oxazol-5-yl)methyl)amino)methyl)cyclobutan-1-ol], for which the EC50 in test [1] is less than 200 nM. Moreover, the IC50 in test [2] and in test [3] was less than 200 nM throughout.
With `Cn1cnnc1-c1cc(F)ccc1-c1cccc(-c2nc3cc(CNCC4COC4)cc(C(F)(F)F)c3o2)c1` [GB-2, 1-(2-(4′-Fluoro-2′-(4-methyl-4H-1,2,4-triazol-3-yl)-[1,1′-biphenyl]-3-yl)-7-(trifluoromethyl)benzo[d]oxazol-5-yl)-N-(oxetan-3-ylmethyl)methanamine], the EC50 in test [1] is less than 200 nM. The 50% inhibitory concentration (IC50) in test [2] and in test [3] was less than 200 nM throughout.
As for `Cn1cnnc1-c1cc(F)ccc1-c1cccc(-c2nc3cc(CNC4CCC4)cc(C(F)(F)F)c3o2)c1` [GC-2, N-((2-(4′-Fluoro-2′-(4-methyl-4H-1,2,4-triazol-3-yl)-[1,1′-biphenyl]-3-yl)-7-(trifluoromethyl)benzo[d]oxazol-5-yl)methyl)cyclobutanamine], the EC50 in test [1] is less than 200 nM. The half-maximal inhibitory concentration (IC50) in test [2] and in test [3] was less than 200 nM throughout.
Take `CCOCCNCc1cc(OC)c2oc(-c3cccc(-c4ccc(F)cc4-c4nncn4C)c3)nc2c1` [GD-1, 2-Ethoxy-N-((2-(4′-fluoro-2′-(4-methyl-4H-1,2,4-triazol-3-yl)-[1,1′-biphenyl]-3-yl)-7-methoxybenzo[d]oxazol-5-yl)methyl)ethan-1-amine]: the concentration giving a half-maximal response (EC50) in test [1] is 200 to 1000 nM. Besides, the IC50 in test [2] was 200 to 1000 nM; in test [3] it was less than 200 nM.

(Values after patent US20250163038A1, “CBL-B MODULATORS AND USES THEREOF” (Nimbus Clio, Inc., priority 2021, published 2025).)
